Source: patent US9232796B2, “Herbicidal compositions comprising 4-amino-3-chloro-5-fluoro-6-(4-chloro-2-fluoro-3-methoxyphenyl) pyridine-2-carboxylic acid or a derivative thereof and acetyl-CoA carboxylase (ACCase) inhibitors” (DOW AGROSCIENCES LLC, priority 2012, dated 2016)

What was measured:
ECHOR = test: Example VI in-water applied ternary mixtures, greenhouse, transplanted paddy rice weeds; format: in vivo, Echinochloa oryzoides (Ard.) Fritsch
Method: (§1) Weed seeds or nutlets of the desired test plant species were planted in puddled soil (mud) prepared by mixing a shredded, non-sterilized mineral soil (50.5 percent silt, 25.5 percent clay, and 24 percent sand, with a pH of about 7.6 and an organic matter content of about 2.9 percent) and water at a 1:1 volumetric ratio. The prepared mud was dispensed in 365 mL aliquots into 16-ounce (oz.) non-perforated plastic pots with a surface area of 86.59 square centimeters (cm^2) leaving a headspace of 3 centimeters (cm) in each pot. Mud was allowed to dry overnight prior to planting or transplanting. Rice seeds were planted in Sun Gro MetroMix® 306 planting mixture, which typically has a pH of 6.0 to 6.8 and an organic matter content of about 30 percent, in plastic plug trays. Seedlings at the second or third leaf stage of growth were transplanted into 860 mL of mud contained in 32-oz. non-perforated plastic pots with a surface area of 86.59 cm^2 4 days prior to herbicide application. The paddy was created by filling the headspace of the pots with 2.5 to 3 cm of water. When required to ensure good germination and healthy plants, a fungicide treatment and/or other chemical or physical treatment was applied. The plants were grown for 4-22 days in a greenhouse with an approximate 14 hr. photoperiod which was maintained at about 29° C. during the day and 26° C. during the night. Nutrients were added as Osmocote® (19:6:12, N:P:K+minor nutrients) at 2 g per 16-oz. pot and 4 g per 32-oz. pot. Water was added on a regular basis to maintain the paddy flood, and supplemental lighting was provided with overhead metal halide 1000-Watt lamps as necessary. The plants were employed for testing when they reached the first through fourth true leaf stage.
(§2) Treatments consisted of the benzyl ester of 4-amino-3-chloro-5-fluoro-6-(4-chloro-2-fluoro-3-methoxy-phenyl)pyridine-2-carboxylic acid (Compound A), formulated as an SC (suspension concentrate), an ACCase inhibitor herbicide, and a third herbicidal component, each applied alone and in ternary combination. Forms of compound A were applied on an acid equivalent basis.
(§3) The ACCase inhibitor component was applied on an active ingredient basis and included cyhalofop-R-butyl formulated as Clincher® G and metamifop formulated as Metamifop EC. Other herbicidal components were applied on an active ingredient or acid equivalent basis depending on the compound and included penoxsulam formulated as Grasp® SC, bentazon sodium formulated as Basagran®, triclopyr […] (TEA) salt formulated as Grandstand® R, benzobicyclon formulated as Benzobicyclon, benfuresate formulated as Full Slot® WG, pyraclonil formulated as Pyraclon® Flowable, mefenacet (technical grade material), and pretilachlor (technical grade material).
(§4) Treatment requirements for each compound or herbicidal component were calculated based upon the rates being tested, the concentration of active ingredient or acid equivalent in the formulation, an application volume of 1 mL per component per pot, and an application area of 86.59 cm^2 per pot.
(§5) For formulated compounds, a measured amount was placed in an individual 100 or 200 mL glass vial and was dissolved in a volume of 1.25% (v/v) Agri-Dex® crop oil concentrate to obtain application solutions.
(§6) For technical grade compounds, a weighed amount was placed in an individual 100 to 200 mL glass vial and was dissolved in a volume of acetone to obtain concentrated stock solutions.
(§7) Applications were made by injecting with a pipetter appropriate amounts of the application solutions, into the aqueous layer of the paddy. Control plants were treated in the same manner with the solvent blank. Applications were made so that all treated plant material received the same concentrations of acetone and crop oil concentrate.
(§8) The treated plants and control plants were placed in a greenhouse as described above and water was added as needed to maintain a paddy flood. […]

ECHCG = test: as above; format: in vivo, Echinochloa crus-galli (L.) Beauv.; conditions: Table 67, 100 gai/ha, 21 DAA
Method: as §1, §2, §3, §4, §5, §6, §7, §8

FIMMI = test: as above; format: in vivo, Fimbristylis miliacea (L.) Vahl; conditions: Table 67, 50 gai/ha, 24 DAA
Method: as §1, §2, §3, §4, §5, §6, §7, §8

BRAPP = test: Example I postemergence foliar-applied, greenhouse, direct seeded rice weeds; format: in vivo, Brachiaria platyphylla (Griseb.) Nash
Text: (§9) Seeds or nutlets of the desired test plant species were planted in a soil matrix prepared by mixing a loam or sandy loam soil (e.g., 28.6 percent silt, 18.8 percent clay, and 52.6 percent sand, with a pH of about 5.8 and an organic matter content of about 1.8 percent) and calcareous grit in an 80 to 20 ratio. The soil matrix was contained in plastic pots with a volume of 1 quart and a surface area of 83.6 square centimeters (cm^2). When required to ensure good germination and healthy plants, a fungicide treatment and/or other chemical or physical treatment was applied. The plants were grown for 8-22 days in a greenhouse with an approximate 14 hr. photoperiod which was maintained at about 29° C. during the day and 26° C. during the night. Nutrients (Peters Excel® 15-5-15 5-Ca 2-Mg and iron chelate) were applied in the irrigation solution as needed and water was added on a regular basis. Supplemental lighting was provided with overhead metal halide 1000-Watt lamps as necessary. The plants were employed for testing when they reached the first through fourth true leaf stage.
(§10) Treatments consisted of the acid or esters of 4-amino-3-chloro-5-fluoro-6-(4-chloro-2-fluoro-3-methoxy-phenyl)pyridine-2-carboxylic acid (Compound A), each formulated as an SC (suspension concentrate), and various herbicidal components alone and in combination.
(§11) Other herbicidal components were applied on an acid equivalent (ae) or active ingredient (ai) basis and included acetyl coA carboxylase (ACCase)-inhibiting herbicides (cyclohexanedione and aryloxyphenoxypropionate chemical classes) cyhalofop-butyl formulated as Clincher® SF (285 gr ai/L EC), diclofop-methyl formulated as Hoelon® 3EC, fenoxaprop-p-ethyl+isoxadifen-ethyl formulated as RiceStar® HT (0.58 lb./gal EC), fenoxaprop-p-ethyl+mefenpyr diethyl formulated as Puma® IEC, metamifop formulated as Metamifop EC, haloxyfop-methyl formulated as Gallant Super®, fluazifop-p-butyl formulated as Fusilade® DX, quizalofop-p-ethyl formulated as Assure® II, profoxydim formulated as Aura® 20EC, clethodim applied as Intensity®, sethoxydim formulated as Poast®, and tralkoxydim formulated as Achieve®.
(§12) Treatment requirements were calculated based upon the rates being tested, the concentration of active ingredient or acid equivalent in the formulation, and a 12 mL application volume at a rate of 187 L/ha.
(§13) For treatments comprised of formulated compounds, measured amounts of compounds were placed individually in 25 mL glass vials and diluted in a volume of 1.25% (v/v) Agri-Dex® crop oil concentrated to obtain 12× stock solutions. […] Application solutions were prepared by adding an appropriate amount of each stock solution (e.g., 1 mL) and diluted to the appropriate final concentrations with the addition of 10 mL of an aqueous mixture of 1.25% (v/v) crop oil concentrate so that the final spray solutions contained 1.25+/−0.05% (v/v) crop oil concentrate.
(§14) All stock solutions and applications solutions were visually inspected for compound compatibility prior to application. Spray solutions were applied to the plant material with an overhead Mandel track sprayer equipped with a 8002E nozzles calibrated to deliver 187 L/ha over an application area of 0.503 m^2 at a spray height of 18 to 20 inches (46 to 50 cm) above average plant canopy height. Control plants were sprayed in the same manner with the solvent blank.
(§15) The treated plants and control plants were placed in a greenhouse as described above and watered by sub-irrigation to prevent wash-off of the test compounds. After approximately 3 weeks, the condition of the test plants as compared with that of the untreated plants was determined visually and scored on a scale of 0 to 100 percent where 0 corresponds to no injury or growth inhibition and 100 corresponds to complete kill. […]

CYPRO = test: Example II in-water applied, greenhouse, transplanted paddy rice weeds; format: in vivo, Cyperus rotundus L.
Method: as §1, with “When required to ensure good germination and healthy plants, a fungicide treatment and/or other chemical or physical treatment was applied.” left out
(§16) Treatments consisted of the acid or esters of 4-amino-3-chloro-5-fluoro-6-(4-chloro-2-fluoro-3-methoxy-phenyl)pyridine-2-carboxylic acid (compound A) each formulated as an SC (suspension concentrate) and various herbicidal components alone and in combination.
as §5
as §7, with “solutions, individually and sequentially,” for “solutions,”
(§17) The treated plants and control plants were placed in a greenhouse as described above and water was added as needed to maintain a paddy flood. After approximately 3 weeks the condition of the test plants as compared with that of the untreated plants was determined visually and scored on a scale of 0 to 100 percent where 0 corresponds to no injury or growth inhibition and 100 corresponds to complete kill.
(§18) Colby's equation was used to determine the herbicidal effects expected from the mixtures (Colby, S. R. 1967. Calculation of the synergistic and antagonistic response of herbicide combinations. Weeds 15:20-22.).
(§19) The following equation was used to calculate the expected activity of mixtures containing two active ingredients, A and B: Expected=A+B−(A×B/100)

ECHCO = test: Example I postemergence foliar-applied, greenhouse, direct seeded rice weeds; format: in vivo, Echinochloa colona (L.) Link
Text: as §9, §10, §11, §12, §13, §14, §15

SCPJU [1] = test: as above; format: in vivo, Schoenoplectus juncoides (Roxb.) Palla
Text: as §9, §10, §11, §12, §13, §14, §15

SCPJU [2] = test: Example II in-water applied, greenhouse, transplanted paddy rice weeds; format: in vivo, Schoenoplectus juncoides (Roxb.) Palla; conditions: in-water
Method: as §1, with “When required to ensure good germination and healthy plants, a fungicide treatment and/or other chemical or physical treatment was applied.” left out
as §16, §5
as §7, with “solutions, individually and sequentially,” for “solutions,”
as §17, §18, §19

IPOHE = test: Example I postemergence foliar-applied, greenhouse, direct seeded rice weeds; format: in vivo, Ipomoea hederacea Jacq.
Text: as §9, §10, §11, §12, §13, §14, §15

CS(=O)(=O)c1ccc(C(=O)C2=C(Sc3ccccc3)C3CCC(C3)C2=O)c(Cl)c1 (stereo not shown) [Benzobicylon]
10%: Visual Weed Control (%) - 24 DAA ECHOR Obs (ECHOR; Table 67, 25 gai/ha) | Visual Weed Control (%) - 24 DAA ECHOR Obs (ECHOR; Table 67, 50 gai/ha)
68%: Visual Weed Control (%) - 24 DAA FIMMI Obs (FIMMI)
20%: Visual Weed Control (%) - 21 DAA ECHCG Obs (ECHCG)

COC(=O)[C@@H](C)Oc1ccc(Oc2ncc(C(F)(F)F)cc2Cl)cc1 [Haloxyfop-methyl, methyl(2R)-2-[4-[[3-chloro-5-(trifluoromethyl)-2-pyridinyl]oxy]phenoxy]propanoate]
0%: Visual Weed Control (%) - 20 DAA BRAPP Obs (BRAPP; 6.75 gai/ha) | Visual Weed Control (%) - 20 DAA BRAPP Obs (BRAPP; 13.5 gai/ha) | Visual Weed Control (%) - 20 DAA CYPRO Obs (CYPRO; 13.5 gai/ha) | Visual Weed Control (%) - 20 DAA CYPRO Obs (CYPRO; 27 gai/ha) | Visual Weed Control (%) - 20 DAA ECHCO Obs (ECHCO; 6.75 gai/ha) | Visual Weed Control (%) - 20 DAA ECHCO Obs (ECHCO; 13.5 gai/ha) | Visual Weed Control (%) - 20 DAA ECHCO Obs (ECHCO; 27 gai/ha) | Visual Weed Control (%) - 20 DAA SCPJU Obs (SCPJU [1]; 6.75 gai/ha) | Visual Weed Control (%) - 20 DAA SCPJU Obs (SCPJU [1]; 13.5 gai/ha) | Visual Weed Control (%) - 20 DAA SCPJU Obs (SCPJU [1]; 27 gai/ha) | Visual Weed Control (%) - 20 DAA SCPJU Obs (SCPJU [2]; 13.5 gai/ha) | Visual Weed Control (%) - 20 DAA SCPJU Obs (SCPJU [2]; 27 gai/ha) | Visual Weed Control (%) - 20 DAA IPOHE Obs (IPOHE; 6.75 gai/ha) | Visual Weed Control (%) - 20 DAA IPOHE Obs (IPOHE; 13.5 gai/ha) | Visual Weed Control (%) - 20 DAA IPOHE Obs (IPOHE; 27 gai/ha)
